Measured values as given in ChEMBL document CHEMBL1944569, “QSAR study and synthesis of new phenyltropanes as ligands of the dopamine transporter (DAT)” (Bioorg Med Chem, 2012).

molecular target: T1, Sodium-dependent dopamine transporter (Homo sapiens, UniProt Q01959); assay: Ratio of LBT999 Ki to compound Ki for human cloned DAT receptor; conditions: not given
T1 sequence (Q01959 whole entry): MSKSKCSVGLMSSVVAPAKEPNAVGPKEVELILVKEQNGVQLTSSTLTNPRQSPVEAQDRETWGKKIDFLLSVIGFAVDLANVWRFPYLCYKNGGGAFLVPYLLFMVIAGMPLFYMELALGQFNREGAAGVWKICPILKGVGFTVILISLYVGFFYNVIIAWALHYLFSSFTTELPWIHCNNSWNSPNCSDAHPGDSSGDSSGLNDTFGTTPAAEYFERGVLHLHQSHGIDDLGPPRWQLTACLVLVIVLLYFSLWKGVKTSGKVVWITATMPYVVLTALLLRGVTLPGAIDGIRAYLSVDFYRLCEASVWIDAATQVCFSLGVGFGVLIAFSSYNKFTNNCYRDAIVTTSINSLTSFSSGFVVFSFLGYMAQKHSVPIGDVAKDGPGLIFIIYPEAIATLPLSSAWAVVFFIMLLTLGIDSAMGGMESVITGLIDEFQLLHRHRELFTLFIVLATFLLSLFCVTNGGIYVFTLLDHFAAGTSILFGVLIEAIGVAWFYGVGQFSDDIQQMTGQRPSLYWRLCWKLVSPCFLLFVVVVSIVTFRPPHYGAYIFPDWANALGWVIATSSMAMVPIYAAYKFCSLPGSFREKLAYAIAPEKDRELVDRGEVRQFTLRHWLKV

| SMILES | Ratio Ki |
| --- | --- |
| COC(=O)[C@H]1[C@@H](c2ccc(C)cc2)C[C@@H]2CC[C@H]1N2C/C(I)=C/C(F)(F)F | 10 |

species on record: Homo sapiens; assay: Selectivity ratio of compound Ki for human cloned SERT receptor to Ki for human DAT receptor; conditions: not given

| SMILES | Ratio Ki |
| --- | --- |
| COC(=O)[C@H]1[C@@H](c2ccc(C)cc2)C[C@@H]2CC[C@H]1N2C/C(I)=C/C(F)(F)F | 10000 |

molecular target: T2, Sodium-dependent dopamine transporter (Rattus norvegicus, UniProt P23977); assay: Displacement of [3H]WIN35428 from rat cloned striatal DAT receptor; conditions: not given
T2 sequence (P23977 whole entry): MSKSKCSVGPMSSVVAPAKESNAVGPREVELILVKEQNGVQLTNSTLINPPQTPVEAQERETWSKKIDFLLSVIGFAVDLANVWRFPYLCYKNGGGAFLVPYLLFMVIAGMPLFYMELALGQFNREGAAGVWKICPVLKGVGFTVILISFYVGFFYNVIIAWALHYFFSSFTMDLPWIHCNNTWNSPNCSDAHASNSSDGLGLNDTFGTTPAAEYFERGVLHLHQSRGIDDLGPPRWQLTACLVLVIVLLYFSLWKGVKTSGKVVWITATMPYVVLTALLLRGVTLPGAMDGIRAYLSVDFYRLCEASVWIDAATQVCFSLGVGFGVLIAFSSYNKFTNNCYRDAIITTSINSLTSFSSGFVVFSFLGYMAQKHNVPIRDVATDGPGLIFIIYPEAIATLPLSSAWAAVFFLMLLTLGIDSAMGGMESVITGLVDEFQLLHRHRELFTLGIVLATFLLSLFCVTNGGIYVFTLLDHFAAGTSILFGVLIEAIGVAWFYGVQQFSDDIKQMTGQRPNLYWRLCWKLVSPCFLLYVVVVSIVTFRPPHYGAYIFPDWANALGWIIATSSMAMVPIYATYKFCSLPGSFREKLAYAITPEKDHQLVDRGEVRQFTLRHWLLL

| SMILES | IC50 | pIC50 |
| --- | --- | --- |
| COC(=O)C1C2CCC(CC1c1ccc(Cl)c(Cl)c1)O2 (stereo not given) | 0.00977 µM |  |
| CCOC(=O)[C@H]1[C@@H](c2ccc(Cl)cc2)C[C@@H]2CC[C@H]1N2Cc1ccc(F)cc1 | 0.00708 µM |  |
| CCOc1ccc([C@H]2C[C@@H]3CC[C@H]([C@H]2C(=O)OC)N3C)cc1 |  | 7.04 |
| COC(=O)C1C2CCC(C2)CC1c1ccc(Cl)c(Cl)c1 (stereo not given) | 0.00331 µM |  |
| COC(=O)[C@H]1[C@@H](c2ccccc2)C[C@@H]2CC[C@H]1N2CC#CCF | 0.00302 µM |  |
| Cc1ccc([C@H]2C[C@@H]3CC[C@H]([C@H]2C(=O)OC/C=C/I)N3C)cc1 | 0.191 µM |  |
| Cc1ccc([C@H]2C[C@@H]3CC[C@H]([C@H]2C(=O)OC/C=C\I)N3C)cc1 | 0.0398 µM |  |
| CN1[C@H]2CC[C@@H]1[C@@H](c1nnc(-c3ccccc3)o1)[C@@H](c1ccc(Cl)cc1)C2 | 2.45 µM |  |
| CCOC(=O)[C@H]1[C@@H](c2ccc(C)cc2)C[C@@H]2CC[C@H]1N2Cc1ccc(F)cc1 | 0.0295 µM |  |
| COc1ccc([C@H]2C[C@@H]3CC[C@H]([C@H]2C(=O)OC(C)C)N3C)cc1 |  | 7.85 |
| CN1[C@H]2CC[C@@H]1[C@@H](c1nc(-c3ccccc3)no1)[C@@H](c1ccc(Cl)cc1)C2 | 0.794 µM |  |

molecular target: T2, Sodium-dependent dopamine transporter; assay: Displacement of [3H]GBR-12935 from rat cloned striatal DAT receptor; conditions: not given

| SMILES | IC50 |
| --- | --- |
| COC(=O)[C@H]1[C@@H](c2ccc(I)cc2)C[C@H]2N[C@@H]1C[C@H]2C | 2.45 µM |
| COC(=O)[C@H]1[C@@H](c2ccc(I)cc2)C[C@@H]2[C@H](C)C[C@H]1N2C | 0.794 µM |

molecular target: T1, Sodium-dependent dopamine transporter; assay: Ratio of PE2I Ki to compound Ki for human cloned DAT receptor; conditions: not given

| SMILES | Ratio Ki |
| --- | --- |
| COC(=O)[C@H]1[C@@H](c2ccc(C)cc2)C[C@@H]2CC[C@H]1N2C/C(I)=C/C(F)(F)F | 20 |

molecular target: Sodium-dependent noradrenaline transporter (Homo sapiens, UniProt P23975); assay: Displacement of [3H]nisoxetine from human cloned NET receptor expressed in HEK293 cells; format: cell-based; conditions: not given
Sequence (P23975 whole entry): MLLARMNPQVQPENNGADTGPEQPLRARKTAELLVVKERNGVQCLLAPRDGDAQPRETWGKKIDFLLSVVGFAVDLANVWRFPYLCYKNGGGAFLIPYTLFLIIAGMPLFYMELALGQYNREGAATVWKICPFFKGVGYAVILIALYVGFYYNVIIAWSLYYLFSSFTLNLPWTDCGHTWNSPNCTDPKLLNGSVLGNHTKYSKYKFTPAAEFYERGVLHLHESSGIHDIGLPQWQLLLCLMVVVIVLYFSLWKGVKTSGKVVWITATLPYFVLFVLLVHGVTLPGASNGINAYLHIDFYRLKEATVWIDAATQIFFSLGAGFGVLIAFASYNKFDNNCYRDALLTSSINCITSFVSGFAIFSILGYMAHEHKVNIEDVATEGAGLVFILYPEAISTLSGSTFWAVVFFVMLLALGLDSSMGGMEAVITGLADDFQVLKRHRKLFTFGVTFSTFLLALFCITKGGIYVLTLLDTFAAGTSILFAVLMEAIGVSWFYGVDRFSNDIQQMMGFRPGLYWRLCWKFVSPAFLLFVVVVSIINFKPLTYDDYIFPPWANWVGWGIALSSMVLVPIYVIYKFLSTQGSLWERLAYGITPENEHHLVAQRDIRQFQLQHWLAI

| SMILES | Ki |
| --- | --- |
| COC(=O)[C@H]1[C@@H](c2ccc(C)cc2)C[C@@H]2CC[C@H]1N2C/C=C/I | > 0.5 µM |
| COC(=O)[C@H]1[C@@H](c2ccc(C)cc2)C[C@@H]2CC[C@H]1N2C/C=C(\I)C(F)(F)F | 0.426 µM |
| COC(=O)[C@H]1[C@@H](c2ccc(C)cc2)C[C@@H]2CC[C@H]1N2C/C(I)=C/C(F)(F)F | 0.188 µM |

molecular target: T1, Sodium-dependent dopamine transporter; assay: Displacement of [3H]WIN35428 from human cloned DAT receptor expressed in human HEK293 cells; format: cell-based; conditions: read-out: Ki

| SMILES | Ki |
| --- | --- |
| COC(=O)[C@H]1[C@@H](c2ccc(C)cc2)C[C@@H]2CC[C@H]1N2C/C=C/I | 0.017 µM |
| COC(=O)[C@H]1[C@@H](c2ccc(C)cc2)C[C@@H]2CC[C@H]1N2C/C=C(\I)C(F)(F)F | 0.116 µM |
| COC(=O)[C@H]1[C@@H](c2ccc(C)cc2)C[C@@H]2CC[C@H]1N2C/C(I)=C/C(F)(F)F | 0.00087 µM |

same assay, conditions: read-out: pKi (converted)

| SMILES | Ki |
| --- | --- |
| COC(=O)[C@H]1[C@@H](c2ccc(C(C)C)cc2)C[C@@H]2CC[C@H]1N2C | 0.501 µM |
| COC(=O)[C@H]1[C@@H](c2ccc(C(C)C)cc2)C[C@@H]2CC[C@H]1N2C/C=C/I | 0.372 µM |
| COC(=O)[C@H]1[C@@H](c2ccccc2)C[C@@H]2CC[C@H]1N2C [TROPARIL] | 0.0331 µM |
| CCCCc1ccc([C@H]2C[C@@H]3CC[C@H]([C@H]2C(=O)OC)N3C)cc1I | 0.372 µM |
| CCCc1ccc([C@H]2C[C@@H]3CC[C@H]([C@H]2C(=O)OC)N3C)cc1I | 0.501 µM |
| COC(=O)[C@H]1[C@@H](c2ccc(C(C)C)c(I)c2)C[C@@H]2CC[C@H]1N2C | 0.501 µM |
| CC(C)OC(=O)[C@H]1[C@@H](c2ccc(Cl)c(Cl)c2)C[C@@H]2CC[C@H]1N2C | 0.0182 µM |
| CCc1ccc([C@H]2C[C@@H]3CC[C@H]([C@H]2C(=O)OC)N3C)cc1 | 0.501 µM |
| O=C(OCCF)[C@H]1[C@@H](c2cccc(/C=C/I)c2)C[C@@H]2CC[C@H]1N2 | 0.275 µM |
| COC(=O)[C@H]1[C@@H](c2ccc(C(C)C)c(I)c2)C[C@@H]2CC[C@H]1N2 | 0.501 µM |
| CN1[C@H]2CC[C@@H]1[C@@H](C(=O)OCCc1ccccc1)[C@@H](c1ccc(Cl)c(Cl)c1)C2 | 0.011 µM |
| C[C@@H](CF)OC(=O)[C@H]1[C@@H](c2ccc(Cl)cc2)C[C@@H]2CC[C@H]1N2C | 0.000676 µM |
| CN1[C@H]2CC[C@@H]1[C@@H](C(=O)OCc1ccccc1)[C@@H](c1ccc(Cl)c(Cl)c1)C2 | 0.0347 µM |
| COC(=O)[C@H]1[C@@H](c2ccc(Cl)c(Cl)c2)C[C@@H]2CC[C@H]1N2C/C=C/I | 0.0288 µM |
| CC(C)OC(=O)[C@@H]1[C@@H](OC(c2ccc(F)cc2)c2ccc(F)cc2)C[C@H]2CC[C@@H]1N2C | 0.0309 µM |
| COC(=O)[C@H]1[C@@H](c2ccc(C)cc2)C[C@@H]2CC[C@H]1N2C/C=C/I | 0.017 µM |
| CCCc1ccc([C@H]2C[C@@H]3CC[C@H]([C@H]2C(=O)OC)N3C/C=C/I)cc1 | 0.372 µM |
| CCc1ccc([C@H]2C[C@@H]3CC[C@@H](N3)[C@H]2C(=O)OC)cc1I | 0.263 µM |
| COC(=O)[C@H]1[C@@H](c2ccc(C)c(I)c2)C[C@@H]2CC[C@H]1N2 | 0.112 µM |
| COC(=O)[C@H]1[C@@H](c2ccccc2)C[C@@H]2CC[C@H]1N2C/C=C/I | 0.115 µM |
| COC(=O)[C@H]1[C@@H](c2ccc(I)cc2)C[C@@H]2CC[C@H]1N2C | 0.0355 µM |
| CN1[C@H]2CC[C@@H]1[C@@H](C(=O)OCCc1ccc(N=[N+]=[N-])c(I)c1)[C@@H](c1ccc(Cl)cc1)C2 | 0.0141 µM |
| COC(=O)[C@H]1[C@@H](c2ccc(I)cc2)C[C@@H]2CC[C@H]1N2C/C=C/CF | 0.000501 µM |

| SMILES | Ki |
| --- | --- |
| C[C@H](CF)OC(=O)[C@H]1[C@@H](c2ccc(Cl)cc2)C[C@@H]2CC[C@H]1N2C | 0.00324 µM |
| CCCCc1ccc([C@H]2C[C@@H]3CC[C@@H](N3)[C@H]2C(=O)OC)cc1I | 0.372 µM |
| CCCc1ccc([C@H]2C[C@@H]3CC[C@H]([C@H]2C(=O)OC)N3C)cc1 | 0.501 µM |
| COC(=O)[C@H]1[C@@H](c2ccc(F)cc2)C[C@@H]2CC[C@H]1N2C/C=C/CF | 0.00955 µM |
| CN1[C@@H]2CC[C@H]1[C@H](C(=O)OCc1ccccc1)[C@@H](OC(c1ccc(F)cc1)c1ccc(F)cc1)C2 | 0.049 µM |
| COC(=O)[C@H]1[C@@H](c2ccc(I)cc2)C[C@@H]2CC[C@H]1N2CCCF [IOFLUPANE] | 0.0282 µM |
| COC(=O)[C@H]1[C@@H](c2ccc(I)cc2)C[C@@H]2CC[C@H]1N2Cc1ccccc1C | 0.0933 µM |
| Cc1ccc([C@H]2C[C@@H]3CC[C@H]([C@H]2C(=O)OCCF)N3C/C=C/I)cc1 | 0.012 µM |
| C=C(Br)CN1[C@H]2CC[C@@H]1[C@@H](C(=O)OC)[C@@H](c1ccc(I)cc1)C2 | 0.0302 µM |
| COC(=O)[C@H]1[C@@H](c2ccc(I)cc2)C[C@@H]2CC[C@H]1N2Cc1ccccc1 | 0.0417 µM |
| COC(=O)[C@H]1[C@@H](c2ccc(Cl)c(Cl)c2)C[C@@H]2CC[C@H]1N2C | 0.00631 µM |
| COC(=O)[C@H]1[C@@H](c2ccc(F)cc2)C[C@@H]2CC[C@H]1N2CCCF | 0.0479 µM |
| C/C=C/CN1[C@H]2CC[C@@H]1[C@@H](C(=O)OC)[C@@H](c1ccc(I)cc1)C2 | 0.0151 µM |
| COC(=O)[C@H]1[C@@H](c2ccc(F)cc2)C[C@@H]2CC[C@H]1N2CCF | 0.0708 µM |
| C#CCN1[C@H]2CC[C@@H]1[C@@H](C(=O)OC)[C@@H](c1ccc(I)cc1)C2 | 0.0141 µM |
| CCCCc1ccc([C@H]2C[C@@H]3CC[C@H]([C@H]2C(=O)OC)N3C)cc1 | 0.501 µM |
| O=C(OCCF)[C@H]1[C@@H](c2ccc(/C=C\I)cc2)C[C@@H]2CC[C@H]1N2 | 0.0132 µM |
| O=C(OCCF)[C@H]1[C@@H](c2cccc(/C=C\I)c2)C[C@@H]2CC[C@H]1N2 | 0.0891 µM |
| COC(=O)[C@H]1[C@@H](c2ccc(C)cc2)C[C@@H]2CC[C@H]1N2C | 0.0324 µM |
| COC(=O)[C@H]1[C@@H](c2ccc(C)c(I)c2)C[C@@H]2CC[C@H]1N2C | 0.0468 µM |
| CCCc1ccc([C@H]2C[C@@H]3CC[C@@H](N3)[C@H]2C(=O)OC)cc1I | 0.501 µM |
| CCc1ccc([C@H]2C[C@@H]3CC[C@H]([C@H]2C(=O)OC)N3C)cc1I | 0.339 µM |
| COC(=O)[C@H]1[C@@H](c2ccc(I)cc2)C[C@@H]2CC[C@H]1N2C/C=C/I | 0.0302 µM |

test system: not listed separately; assay: Lipophilicity, log D of the compound in octanol-water at pH 7.4 by reverse-phase HPLC analysis; conditions: not given

| SMILES | logD |
| --- | --- |
| Nc1ccccc1 [ANILINE] | 0.9 |
| Oc1ccc2ccccc2c1 [BETANAPHTHOL] | 2.7 |
| COC(=O)[C@H]1[C@@H](c2ccc(C)cc2)C[C@@H]2CC[C@H]1N2C/C=C/I | 4.9 |
| COC(=O)[C@H]1[C@@H](c2ccc(C)cc2)C[C@@H]2CC[C@H]1N2C/C=C(\I)C(F)(F)F | 5.3 |
| COC(=O)[C@H]1[C@@H](c2ccc(C)cc2)C[C@@H]2CC[C@H]1N2C/C(I)=C/C(F)(F)F | 5.5 |
| c1ccc(-c2ccccc2)cc1 [BIPHENYL] | 4.01 |
| ClCc1ccccc1 [(CHLOROMETHYL)BENZENE] | 2.3 |
| O=[N+]([O-])c1cccc(O)c1 [3-NITRO-PHENOL] | 2 |
| COC(=O)[C@H]1[C@@H](c2ccc(C)cc2)C[C@@H]2CC[C@H]1N2C/C=C/CF | 4.1 |

molecular target: Sodium-dependent serotonin transporter (Homo sapiens, UniProt P31645); assay: Displacement of [3H]Citalopram from human cloned SERT receptor expressed in HEK293 cells; format: cell-based; conditions: not given
Sequence (P31645 whole entry): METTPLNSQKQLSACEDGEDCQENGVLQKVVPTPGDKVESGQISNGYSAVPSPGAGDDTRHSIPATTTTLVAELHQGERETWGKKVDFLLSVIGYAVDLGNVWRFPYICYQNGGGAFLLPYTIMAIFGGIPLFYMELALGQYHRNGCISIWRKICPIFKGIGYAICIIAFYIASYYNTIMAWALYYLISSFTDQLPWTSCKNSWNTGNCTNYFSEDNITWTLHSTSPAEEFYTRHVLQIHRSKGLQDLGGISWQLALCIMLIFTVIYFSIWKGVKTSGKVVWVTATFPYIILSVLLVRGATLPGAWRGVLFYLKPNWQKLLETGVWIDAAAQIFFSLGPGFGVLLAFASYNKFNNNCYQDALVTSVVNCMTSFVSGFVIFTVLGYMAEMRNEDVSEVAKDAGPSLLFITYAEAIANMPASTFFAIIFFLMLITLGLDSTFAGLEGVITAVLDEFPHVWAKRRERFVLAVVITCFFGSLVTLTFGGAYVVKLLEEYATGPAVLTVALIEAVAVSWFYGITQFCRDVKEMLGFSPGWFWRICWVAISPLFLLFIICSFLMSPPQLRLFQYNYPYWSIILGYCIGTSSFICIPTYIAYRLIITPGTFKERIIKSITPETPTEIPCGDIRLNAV

| SMILES | Ki |
| --- | --- |
| COC(=O)[C@H]1[C@@H](c2ccc(C)cc2)C[C@@H]2CC[C@H]1N2C/C=C(\I)C(F)(F)F | 0.251 µM |
| COC(=O)[C@H]1[C@@H](c2ccc(C)cc2)C[C@@H]2CC[C@H]1N2C/C(I)=C/C(F)(F)F | > 1 µM |

species on record: Homo sapiens; assay: Selectivity ratio of compound Ki for human cloned NET receptor to Ki for human DAT receptor; conditions: not given

| SMILES | Ratio Ki |
| --- | --- |
| COC(=O)[C@H]1[C@@H](c2ccc(C)cc2)C[C@@H]2CC[C@H]1N2C/C(I)=C/C(F)(F)F | 216 |
